Results: patent US20230295087A1, “AGONISTS OF ROR GAMMAt” (BRISTOL-MYERS SQUIBB COMPANY, priority 2019, published 2023)

biological target: T1, human RORgT (Homo sapiens, UniProt P51449); assay: RORgT Gal4 Luciferase Reporter Gene Assay; assay type: cell-based; settings: engineered Jurkat cells overexpressing RORgT (LBD or full length) fused with Gal4 Luc reporter; 18 hours at 37° C.; luminescence
T1 construct: expressed in transfected cells
T1 sequence (P51449 267-516): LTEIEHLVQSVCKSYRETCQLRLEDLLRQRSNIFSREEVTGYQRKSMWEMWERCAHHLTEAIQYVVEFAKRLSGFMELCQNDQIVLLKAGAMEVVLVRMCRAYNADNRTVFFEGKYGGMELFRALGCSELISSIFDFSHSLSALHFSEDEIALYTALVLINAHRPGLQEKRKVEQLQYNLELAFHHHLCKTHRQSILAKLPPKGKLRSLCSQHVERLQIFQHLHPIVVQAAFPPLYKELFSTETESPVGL
Outline: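 Jurkat cells expressing Gal4 Luc with either RORgT LBD (aa267-516) or full-length human RORgT, 10,000 cells/well, treated with compound (40 µM to 0.67 nM final, 3-fold dilutions) for 18 h at 37° C. Steady-Glo luminescence read; inhibition of constitutive activity as % signal-window reduction relative to a control compound.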

In order of rising EC50:
1. O=C(C1CCS(=O)(=O)CC1)N1CC[C@@]2(S(=O)(=O)c3ccccc3)c3ccc(OCc4c(F)cccc4Cl)cc3CC[C@@H]12 [Example 123, 4-[(3aR,9bR)-9b-(benzenesulfonyl)-7-[(2-chloro-6-fluorophenyl)methoxy]-1H,2H,3H,3aH,4H,5H,9bH-benzo[e]indole-3-carbonyl]-1λ^6-thiane-1,1-dione]  7.1 nM
2. O=C(C1CCS(=O)(=O)CC1)N1CC[C@@]2(S(=O)(=O)c3ccccc3)c3ccc(OCc4c(Cl)cccc4Cl)cc3CC[C@@H]12 [Example 126, 4-[(3aR,9bR)-9b-(benzenesulfonyl)-7-[(2,6-dichlorophenyl)methoxy]-1H,2H,3H,3aH,4H,5H,9bH-benzo[e]indole-3-carbonyl]-1λ^6-thiane-1,1-dione]  8.5 nM
3. O=C(C1CCS(=O)(=O)CC1)N1CC[C@@]2(S(=O)(=O)c3ccccc3)c3ccc(OCc4c(F)ccc(F)c4Cl)cc3CC[C@@H]12 [Example 131, 4-[(3aR,9bR)-9b-(benzenesulfonyl)-7-[(2-chloro-3,6-difluorophenyl)methoxy]-1H,2H,3H,3aH,4H,5H,9bH-benzo[e]indole-3-carbonyl]-1λ^6-thiane-1,1-dione]  8.6 nM
4. CS(=O)(=O)N1CCC(C(=O)N2CC[C@@]3(S(=O)(=O)c4ccccc4)c4ccc(OCc5c(F)cccc5Cl)cc4CC[C@@H]23)CC1 [Example 137, 4-[(3aR,9bR)-9b-(benzenesulfonyl)-7-[(2-chloro-6-fluorophenyl)methoxy]-1H,2H,3H,3aH,4H,5H,9bH-benzo[e]indole-3-carbonyl]-1-methanesulfonylpiperidine]  8.8 nM
5. O=C1CC[C@@H](C(=O)N2CC[C@@]3(S(=O)(=O)c4ccccc4)c4ccc(OCc5c(F)cccc5Cl)cc4CC[C@@H]23)N1 [Example 138, (5S)-5-[(3aR,9bR)-9b-(benzenesulfonyl)-7-[(2-chloro-6-fluorophenyl)methoxy]-1H,2H,3H,3aH,4H,5H,9bH-benzo[e]indole-3-carbonyl]pyrrolidin-2-one]  8.8 nM
6. O=C(C1CCS(=O)(=O)CC1)N1CC[C@@]2(S(=O)(=O)c3ccccc3)c3ccc(OCc4c(F)cccc4C(F)(F)F)cc3CC[C@@H]12 [Example 132, 4-[(3aR,9bR)-9b-(benzenesulfonyl)-7-{[2-fluoro-6-(trifluoromethyl)phenyl]methoxy}-1H,2H,3H,3aH,4H,5H,9bH-benzo[e]indole-3-carbonyl]-1λ^6-thiane-1,1-dione]  9.5 nM
7. O=C(C1CCS(=O)(=O)C1)N1CC[C@@]2(S(=O)(=O)c3ccccc3)c3ccc(OCc4c(F)cccc4Cl)cc3CC[C@@H]12 (stereo partly drawn) [Example 135, 3-[(3aR,9bR)-9b-(benzenesulfonyl)-7-[(2-chloro-6-fluorophenyl)methoxy]-1H,2H,3H,3aH,4H,5H,9bH-benzo[e]indole-3-carbonyl]-1λ^6-thiolane-1,1-dione]  9.7 nM
8. NC(=O)N1CCC(C(=O)N2CC[C@@]3(S(=O)(=O)c4ccccc4)c4ccc(OCc5c(F)cccc5Cl)cc4CC[C@@H]23)CC1 [Example 141, 4-[(3aR,9bR)-9b-(benzenesulfonyl)-7-[(2-chloro-6-fluorophenyl)methoxy]-1H,2H,3H,3aH,4H,5H,9bH-benzo[e]indole-3-carbonyl]piperidine-1-carboxamide]  10 nM
9. O=C(C1CCS(=O)(=O)CC1)N1CC[C@@]2(S(=O)(=O)c3ccccc3)c3ccc(OCc4ccccc4Cl)cc3CC[C@@H]12 [Example 127, 4-[(3aR,9bR)-9b-(benzenesulfonyl)-7-[(2-chlorophenyl)methoxy]-1H,2H,3H,3aH,4H,5H,9bH-benzo[e]indole-3-carbonyl]-1λ^6-thiane-1,1-dione]  12 nM
10. O=C(C1CCS(=O)(=O)CC1)N1CC[C@@]2(S(=O)(=O)c3ccccc3)c3ccc(OCc4cc(F)ccc4Cl)cc3CC[C@@H]12 [Example 130, 4-[(3aR,9bR)-9b-(benzenesulfonyl)-7-[(2-chloro-5-fluorophenyl)methoxy]-1H,2H,3H,3aH,4H,5H,9bH-benzo[e]indole-3-carbonyl]-1λ^6-thiane-1,1-dione]  12 nM
11. O=C(C1CCS(=O)(=O)CC1)N1CC[C@@]2(S(=O)(=O)c3ccc(F)cc3)c3ccc(OCc4c(Cl)cccc4Cl)cc3CC[C@@H]12 [Example 128, 4-[(3aR,9bR)-7-[(2,6-dichlorophenyl)methoxy]-9b-(4-fluorobenzenesulfonyl)-1H,2H,3H,3aH,4H,5H,9bH-benzo[e]indole-3-carbonyl]-1λ^6-thiane-1,1-dione]  13 nM
12. O=C(CN1CCS(=O)(=O)CC1)N1CC[C@@]2(S(=O)(=O)c3ccccc3)c3ccc(OCc4c(F)cccc4Cl)cc3CC[C@@H]12 [Example 139, 4-{2-[(3aR,9bR)-9b-(benzenesulfonyl)-7-[(2-chloro-6-fluorophenyl)methoxy]-1H,2H,3H,3aH,4H,5H,9bH-benzo[e]indol-3-yl]-2-oxoethyl}-1λ^6-thiomorpholine-1,1-dione]  14 nM
13. CC(=O)N1CCC(C(=O)N2CC[C@@]3(S(=O)(=O)c4ccccc4)c4ccc(OCc5c(F)cccc5Cl)cc4CC[C@@H]23)CC1 [Example 136, 1-{4-[(3aR,9bR)-9b-(benzenesulfonyl)-7-[(2-chloro-6-fluorophenyl)methoxy]-1H,2H,3H,3aH,4H,5H,9bH-benzo[e]indole-3-carbonyl]piperidin-1-yl}ethan-1-one]  16 nM
14. O=C(C1CCS(=O)(=O)CC1)N1CC[C@@]2(S(=O)(=O)c3ccccc3)c3ccc(OCc4cc(Cl)ccc4Cl)cc3CC[C@@H]12 [Example 129, 4-[(3aR,9bR)-9b-(benzenesulfonyl)-7-[(2,5-dichlorophenyl)methoxy]-1H,2H,3H,3aH,4H,5H,9bH-benzo[e]indole-3-carbonyl]-1λ^6-thiane-1,1-dione]  17 nM
15. O=C(C1CCS(=O)(=O)CC1)N1CC[C@@]2(S(=O)(=O)c3ccccc3)c3ccc(OCc4c(F)cccc4F)cc3CC[C@@H]12 [Example 133, 4-[(3aR,9bR)-9b-(benzenesulfonyl)-7-[(2,6-difluorophenyl)methoxy] -1H,2H,3H,3aH,4H,5H,9bH-benzo[e]indole-3-carbonyl]-1λ^6-thiane-1,1-dione]  17 nM
16. O=C(C1CCS(=O)(=O)CC1)N1CC[C@@]2(S(=O)(=O)c3ccccc3)c3ccc(OCc4ccc(F)cc4Cl)cc3CC[C@@H]12 [Example 134, 4-[(3aR,9bR)-9b-(benzenesulfonyl)-7-[(2-chloro-4-fluorophenyl)methoxy]-1H,2H,3H,3aH,4H,5H,9bH-benzo[e]indole-3-carbonyl]-1λ^6-thiane-1,1-dione]  22 nM
17. O=C(C1CCS(=O)(=O)CC1)N1CC[C@@]2(S(=O)(=O)c3ccccc3)c3ccc(OCC4CCCCC4)cc3CC[C@@H]12 [Example 125, 4-[(3aR,9bR)-9b-(benzenesulfonyl)-7-(cyclohexylmethoxy)-1H,2H,3H,3aH,4H,5H,9bH-benzo[e]indole-3-carbonyl]-1λ^6-thiane-1,1-dione]  24 nM
18. Cc1ccccc1COc1ccc2c(c1)CC[C@H]1N(C(=O)C3CCS(=O)(=O)CC3)CC[C@@]21S(=O)(=O)c1ccccc1 [Example 124, 4-[(3aR,9bR)-9b-(benzenesulfonyl)-7-[(2-methylphenyl)methoxy]-1H,2H,3H,3aH,4H,5H,9bH-benzo[e]indole-3-carbonyl]-1λ^6-thiane-1,1-dione]  34 nM
19. O=C1CC(C(=O)N2CC[C@@]3(S(=O)(=O)c4ccccc4)c4ccc(OCc5c(F)cccc5Cl)cc4CC[C@@H]23)CN1 (stereo partly drawn) [Example 140, 4-[(3aR,9bR)-9b-(benzenesulfonyl)-7-[(2-chloro-6-fluorophenyl)methoxy]-1H,2H,3H,3aH,4H,5H,9bH-benzo[e]indole-3-carbonyl]pyrrolidin-2-one]  134 nM
